Results from US8772495B2, “5-lipoxygenase-activating protein inhibitor” (Panmira Pharmaceuticals, LLC, priority 2008, dated 2014).
Like-named read-outs stand apart in the source and are kept apart here.

Experiments:
CYP1A2 = CYP1A2 (Homo sapiens (Human), UniProt P05177); experiment: Extracellular cytochrome P450 inhibition (microsomes); type: in vitro ADME; details: concentrations up to and exceeding 40 μM
Experimental: Aliquots of this mixture (89 μL) were delivered to each well of a 96-well polypropylene plate which contained an aliquot of inhibitor (1 μL). Final solvent concentrations were 1% (v/v) or less. Incubations were commenced with the addition of 10 μL β-NADPH (10 mM stock) to a final volume of 100 μL. […] Samples were centrifuged, and supernatant was transferred for LC-MS analysis.

[1] = Phase I study: pharmacokinetics after single and multiple oral doses; type: in vivo; details: human, plasma
Description: Study Design: Single center, double-blind, randomized, placebo-controlled, single ascending dose followed by multiple ascending dose study.
Sample Size: (1) Single Dose Phase: eight (8) subjects (6 active, 2 placebo) per dose level; up to 5 dose levels are planned (a total of 40 subjects if all 5 dose levels are completed); and (2) Multiple Dose Phase: eight (8) subjects (6 active, 2 placebo) per dose level; up to 4 dose levels are planned (a total of 32 subjects if all 4 dose levels are completed).
Formulations: Compound 2 was supplied as an oral powder for reconstitution. Placebo solution matched. […] The placebo differed only in the absence of the active.
The following dosing cohorts were used:
Routes of Administration: All doses were administered orally with approximately 100 mL of water rinse. Subjects were fasted for at least 8 hours prior to dosing and for 2 hours after dosing. For BID dosing in the Multiple Dose Phase, when applicable, subjects were fasted for at least 2 hours prior to the second daily dose.
Plasma concentrations of Compound 1 were determined using a validated LC/MS method. Whole blood ionophore-stimulated leukotriene LTB4 and urinary LTE4 production were assayed by ELISA and mass spectrometry, respectively.
Analysis of Samples: Concentrations of Compound 1 was determined in plasma samples collected from subjects. Similarly, concentrations of LTB4 in plasma and urinary LTE4 were determined in blood and urine samples collected.

[2] = Thermodynamic aqueous solubility by HPLC; type: physicochemical; details: water
Experimental: The suspension was equilibrated at 25° C. for 24 hours then the pH was measured. The suspension was then filtered through a glass fibre C filter into a 96 well plate. […] Quantitation was by HPLC with reference to a standard solution of approximately 0.1 mg.ml^−1 in DMSO. Different volumes of the standard, diluted and undiluted sample solutions were injected.
Analysis was performed on an Agilent HP1100 series system equipped with a diode array detector and using ChemStation software vB.02.01-SR1.

[3] = in vivo, po, 250 mg/kg/day
CYP3A4 = CYP3A4 (Homo sapiens (Human), UniProt P08684); experiment: Cellular cytochrome P450 induction in cryopreserved human hepatocytes; details: tested at 10 μM, midazolam substrate
[4] = Single-dose pharmacokinetics in beagle dogs; type: in vivo, female beagle dogs; details: for Cmax: Oral
[5] = oral, 10 mg, multiple dose 10 mg, Day 1
[6] = oral, 10 mg, multiple dose 10 mg, Day 11
[7] = oral, 50 mg, multiple dose 50 mg, Day 1
[8] = oral, 50 mg, multiple dose 50 mg, Day 11
[9] = oral, 150 mg, multiple dose 150 mg, Day 1
[10] = oral, 150 mg, multiple dose 150 mg, Day 11
[11] = oral, 450 mg, multiple dose 450 mg, Day 1
[12] = oral, 450 mg, multiple dose 450 mg, Day 11
[13] = po, 50 mg, single dose 50 mg, oral solution
[14] = po, 150 mg, single dose 150 mg, oral solution
[15] = po, 300 mg, single dose 300 mg, oral solution
[16] = po, 600 mg, single dose 600 mg, oral solution
[17] = po, 1000 mg, single dose 1000 mg, oral solution
[18] = female, beagle, dog, plasma, po, 5 mg/kg, 0.5% Methylcellulose, Fasted
[19] = female, beagle, dog, plasma, po, 5 mg/kg, 0.5% Methylcellulose, Fed
[20] = female, beagle, dog, plasma, po, 6.5 mg/kg, 50 mg Pill, Fasted
[21] = female, beagle, dog, plasma, po, 6.5 mg/kg, 50 mg Pill, Fed

Chain of CYP1A2 (P05177 whole entry): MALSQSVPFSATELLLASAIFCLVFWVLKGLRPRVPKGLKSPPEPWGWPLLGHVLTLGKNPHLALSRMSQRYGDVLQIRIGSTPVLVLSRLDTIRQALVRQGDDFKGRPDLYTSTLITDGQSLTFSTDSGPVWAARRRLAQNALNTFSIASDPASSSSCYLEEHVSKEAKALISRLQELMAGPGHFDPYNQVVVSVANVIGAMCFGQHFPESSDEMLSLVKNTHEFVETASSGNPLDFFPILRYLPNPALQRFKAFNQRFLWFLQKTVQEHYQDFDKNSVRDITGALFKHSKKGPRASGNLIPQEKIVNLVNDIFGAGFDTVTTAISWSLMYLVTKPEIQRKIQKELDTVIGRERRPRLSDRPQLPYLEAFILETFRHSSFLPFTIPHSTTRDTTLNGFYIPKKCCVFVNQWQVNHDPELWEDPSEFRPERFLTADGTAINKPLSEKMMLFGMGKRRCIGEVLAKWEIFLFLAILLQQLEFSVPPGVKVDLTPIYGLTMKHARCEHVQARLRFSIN
Chain of CYP3A4 (P08684 whole entry, looked up): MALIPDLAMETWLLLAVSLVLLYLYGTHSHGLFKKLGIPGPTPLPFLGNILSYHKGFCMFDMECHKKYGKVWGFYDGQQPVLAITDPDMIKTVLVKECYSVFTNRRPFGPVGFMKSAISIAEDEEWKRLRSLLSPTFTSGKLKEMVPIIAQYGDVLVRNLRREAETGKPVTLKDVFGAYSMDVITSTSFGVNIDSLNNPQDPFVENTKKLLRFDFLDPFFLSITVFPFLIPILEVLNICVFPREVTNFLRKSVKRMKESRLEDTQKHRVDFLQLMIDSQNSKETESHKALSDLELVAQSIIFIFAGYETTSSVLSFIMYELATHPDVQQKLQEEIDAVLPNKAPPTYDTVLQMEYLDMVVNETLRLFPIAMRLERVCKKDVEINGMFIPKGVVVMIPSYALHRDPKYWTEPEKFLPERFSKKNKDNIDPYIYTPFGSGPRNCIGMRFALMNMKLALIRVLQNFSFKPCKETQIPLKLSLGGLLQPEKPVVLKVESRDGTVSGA

In the case of `CCOc1ccc(-c2ccc(Cn3c(CC(C)(C)C(=O)[O-])c(SC(C)(C)C)c4cc(OCc5ccc(C)cn5)ccc43)cc2)cn1.[Na+]` [Compound 2, sodium 3-[3-(tert-butylsulfanyl)-1-[4-(6-ethoxy-pyridin-3-yl)benzyl]-5-(5-methyl-pyridin-2-yl-methoxy)-1H-indol-2-yl]-2,2-dimethylpropionate], the apparent inhibition (CYP1A2) is reported as “No apparent inhibition”, the Cmax [1, 5] is reported as 70 ± 10 nM and the Tmax [1, 5] is reported as 4 ± 3.1 h. It also gave an AUC(0-t) ([1]; oral, 10 mg, multiple dose 10 mg, Day 1, read-out: AUClast) of 1.1 ± 0.2 µM·h, a half-life ([1]; oral, 10 mg, multiple dose 10 mg, Day 1, read-out: t½ (converted)) of 32 ± 23 h and a Cmax [1, 6] of 130 ± 50 nM. For the same compound, the Tmax [1, 6] was 10 ± 6.9 h, the AUC(0-t) ([1]; oral, 10 mg, multiple dose 10 mg, Day 11, read-out: AUClast) was 2.4 ± 1.1 µM·h and the half-life ([1]; oral, 10 mg, multiple dose 10 mg, Day 11, read-out: t½ (converted)) was 50 ± 41 h. It also gave a Cmax [1, 7] of 600 ± 200 nM, a Tmax [1, 7] of 4.2 ± 3 h and an AUC(0-t) ([1]; oral, 50 mg, multiple dose 50 mg, Day 1, read-out: AUClast) of 8.3 ± 2.9 µM·h. The half-life ([1]; oral, 50 mg, multiple dose 50 mg, Day 1, read-out: t½ (converted)) was 19 ± 10 h, the Cmax [1, 8] was 900 ± 100 nM and the Tmax [1, 8] was 3.2 ± 2 h. It also gave an AUC(0-t) ([1]; oral, 50 mg, multiple dose 50 mg, Day 11, read-out: AUClast) of 13.5 ± 3.4 µM·h, a half-life ([1]; oral, 50 mg, multiple dose 50 mg, Day 11, read-out: t½ (converted)) of 25 ± 11 h and a Cmax [1, 9] of 1400 ± 700 nM. It also gave a Tmax [1, 9] of 2.3 ± 0.8 h, an AUC(0-t) ([1]; oral, 150 mg, multiple dose 150 mg, Day 1, read-out: AUClast) of 16 ± 6.8 µM·h and a half-life ([1]; oral, 150 mg, multiple dose 150 mg, Day 1, read-out: t½ (converted)) of 16 ± 7.7 h. For the same compound, the Cmax [1, 10] was 3000 ± 1200 nM, the Tmax [1, 10] was 2 h and the AUC(0-t) ([1]; oral, 150 mg, multiple dose 150 mg, Day 11, read-out: AUClast) was 33 ± 16 µM·h. The half-life ([1]; oral, 150 mg, multiple dose 150 mg, Day 11, read-out: t½ (converted)) was 19 ± 13 h, the Cmax [1, 11] was 7300 ± 6000 nM and the Tmax [1, 11] was 2 h. The AUC(0-t) ([1]; oral, 450 mg, multiple dose 450 mg, Day 1, read-out: AUClast) was 57 ± 39 µM·h, the half-life ([1]; oral, 450 mg, multiple dose 450 mg, Day 1, read-out: t½ (converted)) was 12 ± 4 h and the Cmax [1, 12] was 9300 ± 5400 nM. For the same compound, the Tmax [1, 12] was 2 h, the AUC(0-t) ([1]; oral, 450 mg, multiple dose 450 mg, Day 11, read-out: AUClast) was 76 ± 33 µM·h and the half-life ([1]; oral, 450 mg, multiple dose 450 mg, Day 11, read-out: t½ (converted)) was 14 ± 4 h. It also gave a Cmax [1, 13] of 570 ± 300 nM, a Tmax [1, 13] of 2.2 ± 0.4 h and an AUC(0-t) ([1]; po, 50 mg, single dose 50 mg, oral solution, read-out: AUC0-24) of 6.5 ± 2.2 µM·h. The half-life ([1]; po, 50 mg, single dose 50 mg, oral solution, read-out: t1/2 (converted)) was 12.8 ± 2.9 h, the Cmax [1, 14] was 2200 ± 500 nM and the Tmax [1, 14] was 2.3 ± 0.5 h. The AUC(0-t) ([1]; po, 150 mg, single dose 150 mg, oral solution, read-out: AUC0-24) was 21.7 ± 6.1 µM·h, the half-life ([1]; po, 150 mg, single dose 150 mg, oral solution, read-out: t1/2 (converted)) was 11.1 ± 2.8 h and the Cmax [1, 15] was 3000 ± 1500 nM. It also gave a Tmax [1, 15] of 2.7 ± 1.5 h, an AUC(0-t) ([1]; po, 300 mg, single dose 300 mg, oral solution, read-out: AUC0-24) of 23.6 ± 5.9 µM·h and a half-life ([1]; po, 300 mg, single dose 300 mg, oral solution, read-out: t1/2 (converted)) of 9.8 ± 2.5 h. It also gave a Cmax [1, 16] of 11200 ± 7000 nM, a Tmax [1, 16] of 2.3 ± 0.5 h and an AUC(0-t) ([1]; po, 600 mg, single dose 600 mg, oral solution, read-out: AUC0-24) of 90 ± 50 µM·h. For the same compound, the half-life ([1]; po, 600 mg, single dose 600 mg, oral solution, read-out: t1/2 (converted)) was 14.1 ± 6.8 h, the Cmax [1, 17] was 18200 ± 7600 nM and the Tmax [1, 17] was 2 h. For the same compound, the AUC(0-t) ([1]; po, 1000 mg, single dose 1000 mg, oral solution, read-out: AUC0-24) was 110 ± 49 µM·h, the half-life ([1]; po, 1000 mg, single dose 1000 mg, oral solution, read-out: t1/2 (converted)) was 8.3 ± 1.1 h and the “pH of unfiltered saturated solution” value ([2]; 25° C.) was “above 9”. For the same compound, the solubility at 24 h ([2]; 25 °C, thermodynamic from solid, both batches) was over 10000 µg/mL, the Liver weight ([3]; female, CD-1, mouse, 4 days) was 1.2 ± 0.1 and the “Liver weight (% body weight)” value ([3]; female, CD-1, mouse, 4 days) was 4.4 % body weight. The “liver weight change as compared to vehicle control” value ([3]; female, CD-1, mouse, 4 days) was 5%, the necropsy findings ([3]; mouse) was “no gross abnormalities” and the CYP3A4 induction (CYP3A4) was “No apparent induction”. For the same compound, the Cmax ([4]; 0.5% Methylcellulose, 5 mg/kg, Fasted) was 12400 ng/mL, the “reduction in oral bioavailability and dose-adjusted AUC, IR pill compared to oral suspension” value ([4]; fasted or fed comparator dogs) was about 30% and the AUC(0-inf) [4, 18] was 67800 ng·h/mL. The Tmax [4, 18] was 2 h, the bioavailability [4, 18] was 52% and the AUC(0-inf) [4, 19] was 24300 ng·h/mL. For the same compound, the Tmax [4, 19] was 1.3 h, the bioavailability [4, 19] was 19% and the Cmax ([4]; female, beagle, dog, plasma, po, 5 mg/kg, 0.5% Methylcellulose, 5 mg/kg, Fed, read-out: Cmax) was 3700 ng/mL. For the same compound, the AUC(0-inf) [4, 20] was 41000 ng·h/mL, the Tmax [4, 20] was 2 h and the bioavailability [4, 20] was 24%. For the same compound, the AUC(0-inf) [4, 21] was 14400 ng·h/mL, the Tmax [4, 21] was 1.7 h and the bioavailability [4, 21] was 8.4%. For the same compound, the Cmax ([4]; female, beagle, dog, plasma, po, 6.5 mg/kg, 50 mg Pill, 6.5 mg/kg, Fasted, read-out: Cmax) was 7600 ng/mL, the Cmax ([4]; female, beagle, dog, plasma, po, 6.5 mg/kg, 50 mg Pill, 6.5 mg/kg, Fed, read-out: Cmax) was 3200 ng/mL and the half-life ([4]; female, beagle, dog, plasma, IV, 4:1 PEG400:Water, 0.67 mg/kg, Fasted) was 13 h.
